Laboratory results published in patent US11273152B2, “TRPV2 antagonists” (Instituto de Medicina Molecular João Lobo Antunes, priority 2017, dated 2022).
pIC50: −log10 of the molar value. “Also recorded” adds a separate entry of the source. Read-outs that look alike come from different tables or passages of the source.

Legend:
TRPV2 = target: T1, TRPV2 (Homo sapiens, UniProt Q9Y5S1); experiment: Manual patch-clamp assay, hTRPV2 stable HEK-293 cells; type: cell-based; conditions: n=2; for pIC50: read-out: IC50 against TRPV2, patch-clamp assay
T1 sequence (Q9Y5S1 1-764): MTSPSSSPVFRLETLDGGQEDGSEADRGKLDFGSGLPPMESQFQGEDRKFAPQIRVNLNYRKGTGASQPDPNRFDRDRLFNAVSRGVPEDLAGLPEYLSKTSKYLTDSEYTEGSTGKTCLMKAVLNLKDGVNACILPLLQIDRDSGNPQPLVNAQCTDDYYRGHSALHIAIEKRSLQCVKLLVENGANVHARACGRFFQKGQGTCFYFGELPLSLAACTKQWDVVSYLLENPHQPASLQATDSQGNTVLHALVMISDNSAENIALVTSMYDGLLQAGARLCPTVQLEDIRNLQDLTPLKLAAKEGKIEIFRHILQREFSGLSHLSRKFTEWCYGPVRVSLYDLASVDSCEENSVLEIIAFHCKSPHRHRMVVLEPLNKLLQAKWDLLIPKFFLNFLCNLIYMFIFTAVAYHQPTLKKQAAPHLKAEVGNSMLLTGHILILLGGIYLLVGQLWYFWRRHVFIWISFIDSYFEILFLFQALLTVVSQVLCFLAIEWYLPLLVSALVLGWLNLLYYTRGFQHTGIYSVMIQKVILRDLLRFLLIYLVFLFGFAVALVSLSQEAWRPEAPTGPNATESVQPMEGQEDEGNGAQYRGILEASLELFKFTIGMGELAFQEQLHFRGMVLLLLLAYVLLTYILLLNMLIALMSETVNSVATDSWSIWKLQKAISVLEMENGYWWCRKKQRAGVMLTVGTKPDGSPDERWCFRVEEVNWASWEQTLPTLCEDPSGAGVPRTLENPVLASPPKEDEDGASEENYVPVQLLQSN
Protocol: The assays were performed at SB Discovery (Glasgow, UK) on a fee-for-service basis. Concentration-response curves and washout assays were performed using a manual patch clamp method. HEK-293 cells were grown and prepared, according to the adapted procedure for hTRPV2 stable cell lines at SB Discovery. Cells were serum starved for approximately 24 hours and then changed to serum-containing media prior to electrophysiology testing. The manual patch-clamp assay was carried out at room temperature using a traditional electrophysiological unit. Cells were used within 2-3 hours after addition of serum containing media to the cells. The standard extracellular solution contained 145 mM NaCl, 4 mM KCl, 2 mM CaCl2, 1 mM MgCl2, 10 mM HEPES and 10 mM glucose. The pH was adjusted to 7.4 with NaOH, and the osmolarity was measured as 311 mOsm/L. The standard intracellular solution contained 50 mM KCl, 10 mM NaCl, 60 mM KF, 2 mM MgCl2, 20 mM EGTA and 10 mM HEPES. The pH was adjusted to 7.2 with KOH and the osmolarity was measured as 286 mOsm/L. A standard ramp protocol was used to monitor currents upon addition of control (extracellular solution) and compound solutions. The voltage protocol consisted of a series of voltage ramps from −100 mV to +100 mV, every 5 seconds, from a holding potential of −60 mV. The maximum outward current values during the recordings at +100 mV were used for analysis. Manual patch clamp experiments were carried out using an Axon 200B amplifier and a Digidata 1440A acquisition system from Axon Instruments (Molecular Devices, USA). The software program pClamp (version 10) from Axon Instruments was used to stimulate and record electrical activity. Capacitative transients were compensated electronically from the recordings, however the voltage drop across the series resistance and the liquid junction potential were not compensated. The series resistance was generally less than 10 MΩ, with a mean cell capacity of approximately 25 pF. The GraphPad Prism (version 5) software was used to analyze and plot all graphs. The agonist (cannabidiol; Abcam #ab120448) was prepared as 100 mM stock in 100% DMSO and diluted to 4 μM or 10 μM in physiological solution prior to testing. Piperlongumine was prepared as 100 mM stock in 100% DMSO and diluted to the specified concentrations in physiological solution (100, 50, 10, 1 and 0.1 μM), also containing 4 μM or 10 μM cannabidiol. Ruthenium red (Sigma, #R2751) was prepared daily as 10 mM stock ion distilled water and diluted to 100 μM in physiological solution.

TRPM2 = TRPM2 (Homo sapiens, UniProt O94759); experiment: Fluorescence cell-based assay, TRPM2; conditions: calcium 5 dye, duplicate
Protocol: (§1) The assays were performed at SB Discovery (Glasgow, UK) on a fee-for-service basis. Human TRP cells were trypsinised, counted and seeded in black, clear-bottomed 96 well plates at a density of 50,000 cells per well in 100 μL volume and incubated overnight. Next day, the cells were loaded with calcium 5 dye or membrane potential dye. TRPV1-5, TRPA1, TRPM2, TRPM3, and TRPM8 were tested using the calcium 5 dye. TRPC1, TRPC3-7, and TRPM4-5 were tested using the membrane potential dye. Both dye solutions were made up in HEPES buffered Hank's balanced salt solution (HBSS). Dye solution (90 μL) was added to the wells and incubated at 37° C. for 1 hour. Test compounds and standard inhibitors (10 μL) were then added to the wells and incubated at room temperature for 10 minutes. The plates were then placed in the flexstation and fluorescence monitored every 1.52 seconds. After 20 seconds agonist was added and the fluorescence monitored for 2 minutes at 485 nm/525 nm and 530 nm/565 nm, Ex/Em, for the calcium 5 dye and the membrane potential dye respectively. Controls-TRPV1: capsazepine; TRPV2: tranilast; TRPV3: ruthenium red; TRPV4: ruthenium red; TRPV5: Gd^3+; TRPA1, ruthenium red; TRPC1: Gd^3+; TRPC3: Pyr3; TRPC4: ML 204; TRPC5: ML 204; TRPC6: ML 204; TRPC7: SKF 96365; TRPM2: 2-APB; TRPM3: Mef acid; TRPM4: clotrimazole; TRPM5: TPPO; TRPM8: 2-APB. […]

[1] = tested on: human, ligand-gated TRP channels; experiment: TRP channel panel screen, activation; type: cell-based; conditions: TRPV, TRPC, TRPM, TRPA panel
U251 cells = experiment: Toxicity assay (CellTiter-Blue), U251; type: cell-based; conditions: 24, 48 and 72 hours; various concentrations
Protocol: 5,000 cells/well were seeded in 96 well plates with DMEM containing 2% FBS. The next day piperlongumine was added at various concentrations. […] At 24, 48 and 72 hours the media was removed and replaced with CellTiter-Blue (Promega, 1:20 in media). The plate was incubated for 90 minutes before measuring fluorescence intensity.

TRPC4 = TRPC4 (Homo sapiens, UniProt Q9UBN4); experiment: Fluorescence cell-based assay, TRPC4; conditions: membrane potential dye, duplicate
Protocol: as §1

TRPC4, sequence (Q9UBN4 whole entry): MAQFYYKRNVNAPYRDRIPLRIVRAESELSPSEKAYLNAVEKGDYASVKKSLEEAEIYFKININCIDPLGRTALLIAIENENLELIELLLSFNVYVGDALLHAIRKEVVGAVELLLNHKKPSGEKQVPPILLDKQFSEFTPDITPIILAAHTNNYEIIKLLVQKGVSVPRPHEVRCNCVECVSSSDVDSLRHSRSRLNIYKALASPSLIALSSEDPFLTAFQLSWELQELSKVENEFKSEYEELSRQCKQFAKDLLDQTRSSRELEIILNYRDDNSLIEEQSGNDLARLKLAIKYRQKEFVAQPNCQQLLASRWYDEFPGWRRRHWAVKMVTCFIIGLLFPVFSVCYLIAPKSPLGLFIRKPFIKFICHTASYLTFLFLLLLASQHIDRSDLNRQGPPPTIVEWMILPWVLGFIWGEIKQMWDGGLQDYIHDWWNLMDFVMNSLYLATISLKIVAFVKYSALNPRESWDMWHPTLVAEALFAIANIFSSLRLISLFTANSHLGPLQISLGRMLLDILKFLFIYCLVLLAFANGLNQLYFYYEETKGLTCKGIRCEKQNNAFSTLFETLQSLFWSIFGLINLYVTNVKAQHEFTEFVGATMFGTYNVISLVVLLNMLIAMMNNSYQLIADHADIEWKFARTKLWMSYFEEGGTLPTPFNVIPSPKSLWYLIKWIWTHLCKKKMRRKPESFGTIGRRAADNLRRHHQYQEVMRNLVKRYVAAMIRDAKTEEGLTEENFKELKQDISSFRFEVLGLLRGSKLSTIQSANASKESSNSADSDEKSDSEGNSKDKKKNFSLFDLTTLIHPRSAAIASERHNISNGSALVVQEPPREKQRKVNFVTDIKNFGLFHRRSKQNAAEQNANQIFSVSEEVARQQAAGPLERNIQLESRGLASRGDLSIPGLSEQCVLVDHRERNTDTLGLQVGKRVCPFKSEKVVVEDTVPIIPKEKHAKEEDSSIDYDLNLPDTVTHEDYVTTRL
TRPM2, sequence (O94759 whole entry): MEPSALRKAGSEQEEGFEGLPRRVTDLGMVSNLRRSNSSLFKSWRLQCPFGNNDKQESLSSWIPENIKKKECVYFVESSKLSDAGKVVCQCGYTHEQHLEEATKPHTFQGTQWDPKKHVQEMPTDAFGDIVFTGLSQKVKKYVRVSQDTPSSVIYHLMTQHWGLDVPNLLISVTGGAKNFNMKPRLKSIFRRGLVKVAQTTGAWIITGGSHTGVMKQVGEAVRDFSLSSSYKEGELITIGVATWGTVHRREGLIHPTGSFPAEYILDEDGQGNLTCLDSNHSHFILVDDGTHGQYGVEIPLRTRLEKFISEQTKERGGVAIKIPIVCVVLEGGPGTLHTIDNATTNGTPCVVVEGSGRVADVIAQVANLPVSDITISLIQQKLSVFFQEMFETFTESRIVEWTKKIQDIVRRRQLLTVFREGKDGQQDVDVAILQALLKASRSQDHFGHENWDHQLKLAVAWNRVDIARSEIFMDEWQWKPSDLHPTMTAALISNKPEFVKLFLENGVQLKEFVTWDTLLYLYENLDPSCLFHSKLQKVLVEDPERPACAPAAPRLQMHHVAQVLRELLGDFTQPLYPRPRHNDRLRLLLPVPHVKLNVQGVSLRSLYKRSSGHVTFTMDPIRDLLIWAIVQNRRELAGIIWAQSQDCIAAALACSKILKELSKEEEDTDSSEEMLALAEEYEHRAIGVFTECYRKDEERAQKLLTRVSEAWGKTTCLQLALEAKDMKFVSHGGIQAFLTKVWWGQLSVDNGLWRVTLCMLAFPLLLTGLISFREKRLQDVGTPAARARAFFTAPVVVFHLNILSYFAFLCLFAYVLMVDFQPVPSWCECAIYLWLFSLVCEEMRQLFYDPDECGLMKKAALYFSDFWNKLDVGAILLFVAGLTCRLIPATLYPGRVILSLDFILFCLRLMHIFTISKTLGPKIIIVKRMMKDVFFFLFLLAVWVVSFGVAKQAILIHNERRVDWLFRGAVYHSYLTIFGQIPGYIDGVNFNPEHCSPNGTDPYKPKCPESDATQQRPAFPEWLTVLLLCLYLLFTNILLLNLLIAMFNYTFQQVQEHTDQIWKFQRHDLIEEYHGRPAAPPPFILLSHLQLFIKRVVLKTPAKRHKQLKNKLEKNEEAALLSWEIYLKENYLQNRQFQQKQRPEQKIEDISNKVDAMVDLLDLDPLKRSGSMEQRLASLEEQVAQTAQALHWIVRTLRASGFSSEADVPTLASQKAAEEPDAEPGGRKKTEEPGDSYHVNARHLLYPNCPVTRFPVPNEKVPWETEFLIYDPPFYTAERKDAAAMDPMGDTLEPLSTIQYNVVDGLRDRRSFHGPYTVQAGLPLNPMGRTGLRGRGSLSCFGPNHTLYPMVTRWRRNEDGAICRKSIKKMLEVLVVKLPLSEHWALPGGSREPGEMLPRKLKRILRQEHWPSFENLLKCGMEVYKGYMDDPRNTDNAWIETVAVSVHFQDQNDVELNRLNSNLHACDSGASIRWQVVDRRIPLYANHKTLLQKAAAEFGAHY

COc1cc(/C=C/C(=O)N2CCC=CC2=O)cc(OC)c1OC [Compound 1, piperlongumine] was tested, and the “TRPV2 activity after washout (reversibility)” value (TRPV2; 1 at 100 μM, CBD 4 μM) was “fully restored upon washout; also recorded: full TRPV2 activity can be reinstated”, the pIC50 (TRPV2; stimulus: 4 μM CBD, spread in log units) was 6.00 and the pIC50 (TRPV2; stimulus: 10 μM CBD) was < 4.00. The IC50 (TRPM2) was > 100 µM, the “Activation of the assayed TRP channels” value [1] was “did not activate any of the assayed channels” and the “Sensitivity of U251 cells” value (U251 cells) was “sensitive to PL in a dose- and time-dependent manner”. For the same compound, the IC50 (TRPC4) was > 100 µM.
